The values below come from EPA's ToxValDB 9.5 (doi:10.2903/j.efsa.2010.1876).

Series [1] concerns Typhlodromus pyri. The series can be described thus: LR50; higher = less toxic. As to conditions: not reported; mortality.
In series [2] the test system is Tagia sp.
Series [3] relates to Daphnia magna. The settings on record: chronic/long-term; duration: 22 days; reproduction.
The test system of series [4] is Oncorhynchus mykiss. As to conditions: chronic/long-term; duration: 28 days; growth.
Series [5] relates to Lepomis macrochirus. As to conditions: acute; duration: 96 hours; mortality.
The test system of series [6] is Coturnix japonica. As to conditions: acute; oral; mortality.
The subject of series [7] is Mus musculus. The settings on record: acute; oral; mortality.
In series [8] the test system is Anas platyrhynchos. The settings on record: reproductive.
Series [9] concerns Apis mellifera. As to conditions: acute; duration: 48 hours; oral; unspecified; mortality.
Series [10] deals with Rattus norvegicus.
The test system of series [11] is Colinus virginianus. The settings on record: acute; oral; diet; mortality.

Structures are written as SMILES. Values after ≈ are worked out from the molar mass of the structure shown. Values joined by “and” are separate entries in the source; they are usually repeats but may differ in a detail not shown here. Identical values can stand only once.

`CC(C)(C)[C@H](O)[C@H](Cc1ccc(Cl)cc1)n1cncn1` (racemic) [Paclobutrazol] returned an LR50 in [1] greater than 1000 g/ha. Moreover, the LC50 in series [2] (acute, mortality) was greater than 1000 mg/kg; in [5], 23.6 µg/mL (≈ 80.3 µM); in series [11], greater than 2790 mg/kg-day. Further, the NOEC in series [2] (chronic/long-term, duration: 56 days) was 1.69 mg/kg; in series [3], 0.32 mg/L; in series [4], 3.3 mg/L; in series [8], 119 mg/kg-day. In addition, the results for the LD50 in series [6], in [7] and in series [9] were greater than 2100 mg/kg, 490 mg/kg and greater than 2 µg/piece, respectively. For the same compound, the NOAEL – broadly, the highest tested level that showed no adverse finding – in [10] (chronic, duration: 2 years, clinical chemistry) is 2.2 mg/kg-day; in series [10] (developmental, development), 10 mg/kg-day.

As for `NC(Cc1ncn[nH]1)C(=O)O` (stereo not given) [1,2,4-Triazole-3-alanine], the NOAEL in series [10] (developmental, development) came out at 100 mg/kg-day.

As to `c1nc[nH]n1` [1H-1,2,4-Triazole], the NOAEL in series [10] (reproduction developmental) was 17 mg/kg-day and 30 mg/kg-day.
